# Results taken from patent publication US20250228239A1, “MOLECULES HAVING PESTICIDAL UTILITY, AND INTERMEDIATES, COMPOSITIONS, AND PROCESSES, RELATED THERETO” (priority 2024, published 2025).
# Like-named read-outs stand apart in the source and are kept apart here.
# Columns and labels:
# Assay type in all cases: in vivo
# [1] = system: Yellow Fever Mosquito (Aedes aegypti, AEDSAE); conditions: for YFM rating: Table ABC / ABC-DP rating
# How it was run: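 Compounds from DMSO master plates (4000 ppm stock) diluted in 90:10 water/acetone, then dispensed into six replicate plates and infested with ~1-day-old Aedes aegypti larvae in liver-powder water. Held covered at room temperature for 3 days; each well scored for larval mortality and graded on a rating scale.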
# [2] = system: Beet Armyworm (Spodoptera exigua, LAPHEG); experiment: Bioassays on Beet Armyworm (BAW), 128-well diet tray assay; conditions: Spodoptera exigua
# How it was run: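 One to five second-instar larvae per well on artificial diet surface-treated with 50 μg/cm^2 test molecule (applied in 90:10 acetone-water, dried), eight wells per compound. Trays held vented at 25° C., 14:10 light-dark for five to seven days; percent mortality averaged over the eight wells.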
# [3] = system: Cabbage Looper (Trichoplusia ni, TRIPNI); experiment: Bioassays on Cabbage Looper (CL), 128-well diet tray assay; conditions: Trichoplusia ni
# How it was run: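 Second-instar larvae (1–5 per well) placed on artificial diet surface-treated with 50 μg/cm^2 test molecule applied in 90:10 acetone-water and dried. Held at 25° C., 14:10 light-dark, for five to seven days. Percent mortality scored per well and averaged over eight wells.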
# [4] = Beet Armyworm, Table ABC / ABC-DP rating, read-out: BAW rating
# [5] = Cabbage Looper, Table ABC / ABC-DP rating, read-out: CL rating
# [6] = Yellow Fever Mosquito, rating class
# [7] = Beet Armyworm, rating class, read-out: BAW
# [8] = Cabbage Looper, rating class, read-out: CL
# [9] = Table ABC: Biological Results, species YFM
# [10] = Table ABC: Biological Results, species BAW, read-out: BAW
# [11] = Table ABC: Biological Results, species CL, read-out: CL
structure (smiles),measurement,setting,value
"O=C(NN=Cc1ccc(F)cc1F)c1cc(NC(=O)[C@H]2[C@H](c3cc(Cl)cc(Cl)c3)C2(Cl)Cl)ccc1Cl (relative stereo) [F3004, trans-2,2-Dichloro-N-(4-chloro-3-(2-(2,4-difluorobenzylidene)hydrazine-1-carbonyl)phenyl)-3-(3,5-dichlorophenyl)cyclopropane-1-carboxamide]",YFM rating,[1]; Yellow Fever Mosquito,A (80–100)
same,YFM % Control (or Mortality) rating,"[1]; about 1 day-old larvae, 4000 ppm master solution diluted with 90:10 water/acetone, 15 μL per well plus 220 μL larval mixture, 3 days, mortality",A (80–100)
same,mortality at 50 µg/cm2,"[2]; 168 h, second instar larvae, 50 μg/cm^2 of test molecule on artificial diet, 25° C., five to seven days, average of eight wells, read-out: BAW % Control (or Mortality) rating",50 to 100%
same,pest or weed control at 50 µg/cm2,[2]; [4],50 to 100%
same,mortality at 50 µg/cm2,"[3]; 168 h, second instar larvae, 50 μg/cm^2 of test molecule on artificial diet, 25° C., five to seven days, average of eight wells, read-out: CL % Control (or Mortality) rating",50 to 100%
same,pest or weed control at 50 µg/cm2,[3]; [5],50 to 100%
"O=C(Nc1ccc(F)c(NC(=O)C2CCCO2)c1F)c1cc(NC(=O)[C@H]2[C@H](c3ccc(F)c(C(F)(F)F)c3)C2(Cl)Cl)ccc1Cl (stereo partly drawn) [F1521, N-(3-(2-Chloro-5-((1R,3R)-2,2-dichloro-3-(4-fluoro-3-(trifluoromethyl)phenyl)cyclopropane-1-carboxamido)benzamido)-2,6-difluorophenyl)tetrahydrofuran-2-carboxamide]",YFM,[1]; [6],A (80–100)
same,pest or weed control at 50 µg/cm2,[2]; [7],50 to 100%
same,pest or weed control at 50 µg/cm2,[3]; [8],50 to 100%
"Cc1c(NC(=O)c2cc(NC(=O)[C@H]3[C@H](c4ccc(F)c(C(F)(F)F)c4)C3(Cl)Cl)ccc2Cl)ccc(Br)c1[N+](=O)[O-] [F1688, N-(4-Bromo-2-methyl-3-nitrophenyl)-2-chloro-5-((1R,3R)-2,2-dichloro-3-(4-fluoro-3-(trifluoromethyl)phenyl)cyclopropane-1-carboxamido)benzamide]",YFM,[1]; [6],A (80–100)
same,pest or weed control at 50 µg/cm2,[2]; [7],50 to 100%
same,pest or weed control at 50 µg/cm2,[3]; [8],50 to 100%
"O=C(CCC(F)(F)F)Nc1c(F)ccc(NC(=O)c2cc(NC(=O)[C@H]3[C@H](c4ccc(F)c(Cl)c4)C3(Cl)Cl)ccc2Cl)c1F [F1848, 2-Chloro-5-((1R,3R)-2,2-dichloro-3-(3-chloro-4-fluorophenyl)cyclopropane-1-carboxamido)-N-(2,4-difluoro-3-(4,4,4-trifluorobutanamido)phenyl)benzamide]",YFM rating,[1]; Yellow Fever Mosquito,A (80–100)
same,pest or weed control at 50 µg/cm2,[2]; [4],50 to 100%
same,pest or weed control at 50 µg/cm2,[3]; [5],50 to 100%
"Nc1c(F)ccc(NC(=O)c2cc(NC(=O)[C@H]3[C@H](c4ccc(S(F)(F)(F)(F)F)cc4)C3(Cl)Cl)ccc2Cl)c1F (relative stereo) [F1142, trans-N-(3-Amino-2,4-difluorophenyl)-2-chloro-5-(2,2-dichloro-3-(4-(pentafluoro-λ^6-sulfanyl)phenyl)cyclopropane-1-carboxamido)benzamide]",YFM,[1]; [9],A (80–100)
same,pest or weed control at 50 µg/cm2,[2]; [10],50 to 100%
same,pest or weed control at 50 µg/cm2,[3]; [11],50 to 100%
"CC(=O)Nc1ccc(NC(=O)c2cc(NC(=O)[C@H]3[C@H](c4ccc(Cl)c(Cl)c4)C3(Cl)Cl)ccc2Cl)c(C)c1 (relative stereo) [F1059, trans-N-(4-Acetamido-2-methylphenyl)-2-chloro-5-(2,2-dichloro-3-(3,4-dichlorophenyl)cyclopropane-1-carboxamido)benzamide]",YFM,[1]; [9],A (80–100)
same,pest or weed control at 50 µg/cm2,[2]; [10],50 to 100%
same,pest or weed control at 50 µg/cm2,[3]; [11],50 to 100%
"CS(=O)(=O)CC(=O)Nc1c(F)ccc(NC(=O)c2cc(NC(=O)[C@H]3[C@H](c4ccc(F)c(C(F)(F)F)c4)C3(Cl)Cl)ccc2Cl)c1F [F1299, 2-Chloro-5-((1R,3R)-2,2-dichloro-3-(4-fluoro-3-(trifluoromethyl)phenyl)cyclopropane-1-carboxamido)-N-(2,4-difluoro-3-(2-(methylsulfonyl)acetamido)phenyl)benzamide]",YFM,[1]; [9],A (80–100)
same,pest or weed control at 50 µg/cm2,[2]; [10],50 to 100%
same,pest or weed control at 50 µg/cm2,[3]; [11],50 to 100%
"CC(=O)Nc1ccc(NC(=O)c2cc(NC(=O)[C@H]3[C@H](c4ccc(F)c(Cl)c4)C3(Cl)Cl)cc(C)c2Cl)cc1 (relative stereo) [F1186, trans-N-(4-Acetamidophenyl)-2-chloro-5-(2,2-dichloro-3-(3-chloro-4-fluorophenyl)cyclopropane-1-carboxamido)-3-methylbenzamide]",YFM,[1]; [9],A (80–100)
same,pest or weed control at 50 µg/cm2,[2]; [10],50 to 100%
same,pest or weed control at 50 µg/cm2,[3]; [11],50 to 100%
"CC(C)(C)OC(=O)Nc1c(F)ccc(NC(=O)c2cc(NC(=O)[C@H]3[C@H](c4ccc(F)c(C(F)(F)F)c4)C3(Cl)Cl)ccc2Cl)c1F [F1053, tert-Butyl-(3-(2-chloro-5-((1R,3R)-2,2-dichloro-3-(4-fluoro-3-(trifluoromethyl)phenyl)cyclopropane-1-carboxamido)benzamido)-2,6-difluorophenyl)carbamate]",YFM,[1]; [9],A (80–100)
same,pest or weed control at 50 µg/cm2,[2]; [10],50 to 100%
same,pest or weed control at 50 µg/cm2,[3]; [11],50 to 100%
"O=C(Nc1ccc(F)cc1F)c1cc(NC(=O)[C@H]2[C@H](c3ccc(I)cc3)C2(Cl)Cl)ccc1Cl (relative stereo) [F1087, trans-2-Chloro-5-(2,2-dichloro-3-(4-iodophenyl)cyclopropane-1-carboxamido)-N-(2,4-difluorophenyl)benzamide]",YFM,[1]; [9],A (80–100)
same,pest or weed control at 50 µg/cm2,[2]; [10],50 to 100%
same,pest or weed control at 50 µg/cm2,[3]; [11],50 to 100%
"Nc1c(F)ccc(NC(=O)c2cc(NC(=O)[C@H]3[C@H](c4cc(Cl)cc(S(F)(F)(F)(F)F)c4)C3(Cl)Cl)ccc2Cl)c1F (relative stereo) [F1259, trans-N-(3-Amino-2,4-difluorophenyl)-2-chloro-5-(2,2-dichloro-3-(3-chloro-5-(pentafluoro-λ^6-sulfanyl)phenyl)cyclopropane-1-carboxamido)benzamide]",YFM,[1]; [9],A (80–100)
same,pest or weed control at 50 µg/cm2,[2]; [10],50 to 100%
same,pest or weed control at 50 µg/cm2,[3]; [11],50 to 100%
"O=C(Nc1ccc(F)c(NC(=O)C(F)(F)F)c1F)c1cc(NC(=O)[C@H]2[C@H](c3cc(C(F)(F)F)cc(C(F)(F)F)c3)C2(Cl)Cl)ccc1Cl (relative stereo) [F1801, trans-5-(3-(3,5-bis(Trifluoromethyl)phenyl)-2,2-dichlorocyclopropane-1-carboxamido)-2-chloro-N-(2,4-difluoro-3-(2,2,2-trifluoroacetamido)phenyl)benzamide]",YFM rating,[1]; Yellow Fever Mosquito,A (80–100)
same,pest or weed control at 50 µg/cm2,[2]; [4],50 to 100%
same,pest or weed control at 50 µg/cm2,[3]; [5],50 to 100%
"O=C(Nc1ccccc1)c1c(Cl)ccc(NC(=O)[C@H]2[C@H](c3ccc(F)c(Cl)c3)C2(Cl)Cl)c1F [F1466, 6-Chloro-3-((1R,3R)-2,2-dichloro-3-(3-chloro-4-fluorophenyl)cyclopropane-1-carboxamido)-2-fluoro-N-phenylbenzamide]",YFM,[1]; [6],A (80–100)
same,pest or weed control at 50 µg/cm2,[2]; [7],50 to 100%
same,pest or weed control at 50 µg/cm2,[3]; [8],50 to 100%
"CCC(=O)Nc1c(F)ccc(NC(=O)c2cc(NC(=O)[C@H]3[C@H](c4cc(Cl)c(Cl)c(Cl)c4)C3(Cl)Cl)ccc2Cl)c1F [F1654, 2-Chloro-5-((1R,3R)-2,2-dichloro-3-(3,4,5-trichlorophenyl)cyclopropane-1-carboxamido)-N-(2,4-difluoro-3-propionamidophenyl)benzamide]",YFM,[1]; [6],A (80–100)
same,pest or weed control at 50 µg/cm2,[2]; [7],50 to 100%
same,pest or weed control at 50 µg/cm2,[3]; [8],50 to 100%
"CC(=O)Nc1c(F)ccc(NC(=O)c2cc(NC(=O)[C@H]3[C@H](c4ccc(F)c(C(F)(F)F)c4)C3(Cl)Cl)ccc2Cl)c1Cl [F1161, N-(3-Acetamido-2-chloro-4-fluorophenyl)-2-chloro-5-((1R,3R)-2,2-dichloro-3-(4-fluoro-3-(trifluoromethyl)phenyl)cyclopropane-1-carboxamido)benzamide]",YFM,[1]; [9],A (80–100)
same,pest or weed control at 50 µg/cm2,[2]; [10],50 to 100%
same,pest or weed control at 50 µg/cm2,[3]; [11],50 to 100%
"CCOC(=O)NNC(=O)c1cc(NC(=O)[C@H]2[C@H](c3cc(Cl)cc(Cl)c3)C2(Cl)Cl)ccc1Cl (relative stereo) [F2542, trans-ethyl 2-(2-chloro-5-(2,2-dichloro-3-(3,5-dichlorophenyl)cyclopropane-1-carboxamido)benzoyl)hydrazine-1-carboxylate]",YFM rating,[1]; Yellow Fever Mosquito,B (More than 0 – Less than 80)
same,pest or weed control at 50 µg/cm2,[2]; [4],50 to 100%
same,pest or weed control at 50 µg/cm2,[3]; [5],50 to 100%
"Nc1c(F)ccc(NC(=O)c2cc(NC(=O)[C@H]3[C@H](c4cc(C(F)(F)F)cc(C(F)(F)F)c4)C3(Cl)Cl)ccc2Cl)c1F (relative stereo) [F1791, trans-N-(3-Amino-2,4-difluorophenyl)-5-(3-(3,5-bis(trifluoromethyl)phenyl)-2,2-dichlorocyclopropane-1-carboxamido)-2-chlorobenzamide]",YFM rating,[1]; Yellow Fever Mosquito,A (80–100)
same,pest or weed control at 50 µg/cm2,[2]; [4],50 to 100%
same,pest or weed control at 50 µg/cm2,[3]; [5],50 to 100%
"O=C(Nc1cc(NC(=O)C(F)F)c(F)c(F)c1F)c1cc(NC(=O)[C@H]2[C@H](c3ccc(F)c(C(F)(F)F)c3)C2(Cl)Cl)ccc1Cl [F1744, 2-Chloro-5-((1R,3R)-2,2-dichloro-3-(4-fluoro-3-(trifluoromethyl)phenyl)cyclopropane-1-carboxamido)-N-(5-(2,2-difluoroacetamido)-2,3,4-trifluorophenyl)benzamide]",YFM,[1]; [6],A (80–100)
same,pest or weed control at 50 µg/cm2,[2]; [7],50 to 100%
same,pest or weed control at 50 µg/cm2,[3]; [8],50 to 100%
